These results are taken from ChEMBL document CHEMBL1135985, “Synthesis, pharmacokinetics, efficacy, and rat retinal toxicity of a novel mitomycin C-triamcinolone acetonide conjugate” (J Med Chem, 2002).

The test system of test [1] is NIH3T3. Put plainly: Maximal percent of fibroblast cell growth inhibition using antiproliferative assay. The class given is functional, Mus musculus.
The test system of test [2] is NIH3T3. Put plainly: Inhibition of NIH 3T3 cell growth required to induce 50% of maximum response using antiproliferative assay. The class given is functional, cell-based. Particulars: Mus musculus.

SMILES strings stand for the structures. pIC50: −log10 of the molar value.

Regarding `CC1(C)O[C@@H]2CC3C4CCC5=CC(=O)C=C[C@]5(C)[C@@]4(F)[C@@H](O)C[C@]3(C)[C@]2(C(=O)CO)O1.CO[C@@]12[C@H](COC(N)=O)C3=C(C(=O)C(C)=C(N)C3=O)N1C[C@@H]1N[C@@H]12` (stereo partly drawn) [MIXTURE OF MMC AND TA], the Inhibition (commonly the drop in the measured response relative to a control, in per cent) with NIH3T3 [1] turned out to be 83%. The pIC50 (usually the IC50 on a negative log10 scale, so that one unit is a factor of ten) in the test on NIH3T3 [2] was 5.80.
The matching figures for `CC1(C)O[C@@H]2C[C@H]3[C@@H]4CCC5=CC(=O)C=C[C@]5(C)[C@@]4(F)[C@@H](O)C[C@]3(C)[C@]2(C(=O)CO)O1` [TRIAMCINOLONE ACETONIDE]: 25% and 5.60.
The matching figures for `CO[C@@]12[C@H](COC(N)=O)C3=C(C(=O)C(C)=C(N)C3=O)N1C[C@@H]1N[C@@H]12` [MITOMYCIN]: 88% and 5.77.
Taken in the same sequence, the figures for `CO[C@@]12[C@H](COC(N)=O)C3=C(C(O)=C(C)C(=N)C3=O)N1C[C@H]1[C@@H]2N1C(=O)CCCC(=O)OCC(=O)[C@@]12OC(C)(C)O[C@@H]1CC1C3CCC4=CC(=O)C=C[C@]4(C)[C@@]3(F)[C@@H](O)C[C@@]12C` (stereo partly drawn) were 67% and 5.62.
